Source: patent US20230159667A1, “BIOCOMPATIBLE CARRIER FORMULATION FOR APPLICATIONS IN PLANT PROTECTION AND PLANT GROWTH STIMULATION OR IN COSMETICS AND PERSONAL CARE ON THE BASIS OF MODIFIED STARCH” (Amynova Polymers GmbH, priority 2020, published 2023)
Where two headings read alike, the source gives them in different places.

Test: Active ingredient remaining on foliage after rainfall
[1] = sprayed with the invention as adjuvant vs fungicide alone, 27 mm rainfall 2009, 24 mm 2010

| Compound | rain fastness on leaves (residues remaining on foliage after rainfall) [1] | rain fastness on leaves (residues remaining on foliage after rainfall) |
| --- | --- | --- |
| O=[N+]([O-])c1cc(C(F)(F)F)c(Cl)c([N+](=O)[O-])c1Nc1ncc(C(F)(F)F)cc1Cl [fluazinam] | Improved rain fastness | – |
| Mancozeb | Improved rain fastness | – |
| COc1ccc(C(=CC(=O)N2CCOCC2)c2ccc(Cl)cc2)cc1OC [dimethomorph] | – | Improved rain fastness |
